# From ChEMBL document CHEMBL4840352 (J Med Chem, 2021)
# Activity calls are given as the source filed them. The calls are words filed in the database; no cut-off is given here.
# Legend:
# [1] = tested on: Receptor-type tyrosine-protein kinase FLT3 (Homo sapiens), P36888 [UNDEFINED MUTATION]; experiment: Induction of FLT3-ITD degradation in human MV4-11 cells measured upto 18 hrs by Western blot analysis; format: cell-based; conditions: time hrs <=18
# [2] = molecular target: Serine/threonine-protein kinase 4 (Homo sapiens) (UniProt Q13043); experiment: Inhibition of MST1 (unknown origin) at 1000 nM relative to control
# [3] = molecular target: Rho-associated protein kinase 1 (Homo sapiens) (UniProt Q13464); experiment: Inhibition of ROCK1 (unknown origin) at 1000 nM relative to control
# [4] = molecular target: Mitogen-activated protein kinase kinase kinase kinase 1 (Homo sapiens) (UniProt Q92918); experiment: Inhibition of HPK1 (unknown origin) at 1000 nM relative to control
# Sequence of Mitogen-activated protein kinase kinase kinase kinase 1 (Homo sapiens) (Q92918 whole entry, looked up): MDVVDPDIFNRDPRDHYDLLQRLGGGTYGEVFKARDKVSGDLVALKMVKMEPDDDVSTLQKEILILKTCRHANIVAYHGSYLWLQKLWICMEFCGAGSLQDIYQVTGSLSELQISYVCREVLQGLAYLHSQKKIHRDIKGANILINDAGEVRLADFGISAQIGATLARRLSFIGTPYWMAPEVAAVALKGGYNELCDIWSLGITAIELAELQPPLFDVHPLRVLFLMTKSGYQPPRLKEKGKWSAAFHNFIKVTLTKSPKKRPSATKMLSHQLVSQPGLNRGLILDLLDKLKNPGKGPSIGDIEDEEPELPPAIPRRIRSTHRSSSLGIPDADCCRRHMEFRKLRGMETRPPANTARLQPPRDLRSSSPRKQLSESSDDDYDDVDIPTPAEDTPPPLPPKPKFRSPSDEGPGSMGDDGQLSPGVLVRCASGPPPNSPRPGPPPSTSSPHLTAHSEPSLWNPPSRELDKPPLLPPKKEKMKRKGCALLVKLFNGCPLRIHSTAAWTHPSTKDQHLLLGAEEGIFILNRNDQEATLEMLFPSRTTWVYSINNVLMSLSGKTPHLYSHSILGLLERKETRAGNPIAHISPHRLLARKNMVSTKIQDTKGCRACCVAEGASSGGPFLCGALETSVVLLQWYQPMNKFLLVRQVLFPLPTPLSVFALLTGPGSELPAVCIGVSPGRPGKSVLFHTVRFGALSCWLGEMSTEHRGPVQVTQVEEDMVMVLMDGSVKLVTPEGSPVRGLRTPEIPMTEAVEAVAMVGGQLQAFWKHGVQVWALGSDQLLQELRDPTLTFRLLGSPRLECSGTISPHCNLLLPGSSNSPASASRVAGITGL
# [5] = molecular target: ALK tyrosine kinase receptor (Homo sapiens) (UniProt Q9UM73); experiment: Inhibition of ALK (unknown origin) at 1000 nM relative to control
# [6] = molecular target: Mitogen-activated protein kinase kinase kinase 14 (Homo sapiens) (UniProt Q99558); experiment: Inhibition of NIK (unknown origin) at 1000 nM relative to control
# Sequence of Mitogen-activated protein kinase kinase kinase 14 (Homo sapiens) (Q99558 whole entry, looked up): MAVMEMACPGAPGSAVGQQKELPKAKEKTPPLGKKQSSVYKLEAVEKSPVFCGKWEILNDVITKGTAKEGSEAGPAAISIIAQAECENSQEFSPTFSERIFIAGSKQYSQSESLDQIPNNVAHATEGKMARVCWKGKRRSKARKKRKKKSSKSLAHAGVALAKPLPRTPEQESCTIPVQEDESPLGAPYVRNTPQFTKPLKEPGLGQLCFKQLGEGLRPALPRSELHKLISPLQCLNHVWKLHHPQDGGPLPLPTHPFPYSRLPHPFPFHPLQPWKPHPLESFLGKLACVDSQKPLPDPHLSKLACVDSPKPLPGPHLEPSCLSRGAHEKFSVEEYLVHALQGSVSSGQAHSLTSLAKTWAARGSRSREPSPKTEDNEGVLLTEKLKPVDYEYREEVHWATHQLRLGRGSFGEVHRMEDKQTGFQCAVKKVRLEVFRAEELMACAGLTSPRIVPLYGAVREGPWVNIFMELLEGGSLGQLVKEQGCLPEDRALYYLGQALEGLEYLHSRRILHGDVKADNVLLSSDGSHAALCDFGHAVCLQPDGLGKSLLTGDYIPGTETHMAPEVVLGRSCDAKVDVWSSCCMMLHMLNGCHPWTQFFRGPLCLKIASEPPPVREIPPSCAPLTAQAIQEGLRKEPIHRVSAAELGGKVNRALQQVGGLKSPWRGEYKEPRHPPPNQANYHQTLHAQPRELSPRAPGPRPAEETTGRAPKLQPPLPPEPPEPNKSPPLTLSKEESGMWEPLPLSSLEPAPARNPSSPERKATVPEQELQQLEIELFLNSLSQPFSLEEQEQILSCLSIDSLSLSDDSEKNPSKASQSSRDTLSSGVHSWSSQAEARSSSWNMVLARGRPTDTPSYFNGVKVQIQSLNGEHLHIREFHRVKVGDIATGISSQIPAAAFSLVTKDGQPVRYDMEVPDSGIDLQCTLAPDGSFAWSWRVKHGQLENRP
# MV4-11 [7] = experiment: Induction of apoptosis in human MV4-11 cells at 10 nM after 48 hrs by Annexin-V/PI staining based flow cytometry; format: functional, cell-based
# [8] = molecular target: Discoidin domain-containing receptor 2 (Homo sapiens) (UniProt Q16832); experiment: Inhibition of DDR2 (unknown origin) at 1000 nM relative to control
# [9] = molecular target: RAC-alpha serine/threonine-protein kinase (Homo sapiens) (UniProt P31749); experiment: Inhibition of AKT1 (unknown origin) at 1000 nM relative to control
# [10] = molecular target: Receptor tyrosine-protein kinase erbB-2 (Homo sapiens) (UniProt P04626); experiment: Inhibition of HER2 (unknown origin) at 1000 nM relative to control
# [11] = molecular target: Mast/stem cell growth factor receptor Kit (Homo sapiens) (UniProt P10721); experiment: Inhibition of KIT (unknown origin) at 1000 nM relative to control
# [12] = molecular target: Glycogen synthase kinase-3 alpha (Homo sapiens) (UniProt P49840); experiment: Inhibition of GSK3alpha (unknown origin) at 1000 nM relative to control
# Sequence of Glycogen synthase kinase-3 alpha (Homo sapiens) (P49840 2-483 limits assumed): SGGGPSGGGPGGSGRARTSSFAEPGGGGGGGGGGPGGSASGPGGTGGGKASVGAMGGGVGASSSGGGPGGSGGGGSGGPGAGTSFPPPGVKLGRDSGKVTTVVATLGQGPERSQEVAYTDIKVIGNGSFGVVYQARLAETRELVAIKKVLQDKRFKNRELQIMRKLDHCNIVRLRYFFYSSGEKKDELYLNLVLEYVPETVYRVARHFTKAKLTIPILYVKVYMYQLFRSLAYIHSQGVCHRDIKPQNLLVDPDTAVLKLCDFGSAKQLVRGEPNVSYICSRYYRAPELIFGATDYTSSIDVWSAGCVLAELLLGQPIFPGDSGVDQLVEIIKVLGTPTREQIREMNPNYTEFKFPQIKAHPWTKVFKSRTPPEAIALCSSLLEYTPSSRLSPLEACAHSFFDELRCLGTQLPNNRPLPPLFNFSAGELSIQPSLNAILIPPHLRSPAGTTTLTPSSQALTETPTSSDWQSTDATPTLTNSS
# [13] = molecular target: Mitogen-activated protein kinase 8 (Homo sapiens) (UniProt P45983); experiment: Inhibition of JNK1 (unknown origin) at 1000 nM relative to control
# [14] = molecular target: Serine/threonine-protein kinase Chk2 (Homo sapiens) (UniProt O96017); experiment: Inhibition of CHK2 (unknown origin) at 1000 nM relative to control
# [15] = molecular target: Hepatocyte growth factor receptor (Homo sapiens) (UniProt P08581); experiment: Inhibition of C-MET (unknown origin) at 1000 nM relative to control
# [16] = molecular target: Mitogen-activated protein kinase 1 (Homo sapiens) (UniProt P28482); experiment: Inhibition of MAPK2 (unknown origin) at 1000 nM relative to control
# Sequence of Mitogen-activated protein kinase 1 (Homo sapiens) (P28482 whole entry): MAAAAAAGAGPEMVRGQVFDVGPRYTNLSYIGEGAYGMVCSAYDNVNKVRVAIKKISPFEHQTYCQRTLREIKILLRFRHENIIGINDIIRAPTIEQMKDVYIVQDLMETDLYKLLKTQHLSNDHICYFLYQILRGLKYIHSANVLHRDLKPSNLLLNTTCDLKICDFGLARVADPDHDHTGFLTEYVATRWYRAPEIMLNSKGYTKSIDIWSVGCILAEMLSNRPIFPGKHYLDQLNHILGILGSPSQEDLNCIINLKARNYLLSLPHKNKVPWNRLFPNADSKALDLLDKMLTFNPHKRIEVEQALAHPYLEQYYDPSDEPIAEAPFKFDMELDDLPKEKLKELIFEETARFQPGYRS
# [17] = molecular target: Tyrosine-protein kinase JAK3 (Homo sapiens) (UniProt P52333); experiment: Inhibition of JAK3 (unknown origin) at 1000 nM relative to control
# [18] = molecular target: CDK7/Cyclin H/MNAT1 (Homo sapiens) (UniProt P51946+P50613+P51948); experiment: Inhibition of CDK7/cyclinH/MAT1 (unknown origin) at 1000 nM relative to control; format: protein-complex assay
# [19] = molecular target: Aurora kinase A (Homo sapiens) (UniProt O14965); experiment: Inhibition of AURORA-A (unknown origin) at 1000 nM relative to control
# [20] = molecular target: Proto-oncogene tyrosine-protein kinase Src (Homo sapiens) (UniProt P12931); experiment: Inhibition of SRC (unknown origin) at 1000 nM relative to control
# Sequence of Proto-oncogene tyrosine-protein kinase Src (Homo sapiens) (P12931 2-536 limits assumed): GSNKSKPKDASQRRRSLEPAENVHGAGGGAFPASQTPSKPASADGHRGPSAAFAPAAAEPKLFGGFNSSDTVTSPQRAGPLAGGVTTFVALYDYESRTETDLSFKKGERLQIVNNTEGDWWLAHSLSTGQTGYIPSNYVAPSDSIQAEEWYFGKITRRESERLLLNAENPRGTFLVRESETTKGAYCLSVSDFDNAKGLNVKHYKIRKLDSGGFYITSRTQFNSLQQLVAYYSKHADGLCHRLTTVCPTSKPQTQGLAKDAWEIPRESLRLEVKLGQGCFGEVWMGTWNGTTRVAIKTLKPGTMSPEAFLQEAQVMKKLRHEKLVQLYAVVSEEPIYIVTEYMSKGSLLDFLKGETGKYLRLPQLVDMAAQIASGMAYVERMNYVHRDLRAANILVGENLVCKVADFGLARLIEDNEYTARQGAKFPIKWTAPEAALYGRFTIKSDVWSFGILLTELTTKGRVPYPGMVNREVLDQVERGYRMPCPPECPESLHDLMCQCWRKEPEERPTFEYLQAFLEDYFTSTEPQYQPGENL
# [21] = molecular target: Casein kinase I isoform alpha-like (Homo sapiens) (UniProt Q8N752); experiment: Inhibition of CK1A1 (unknown origin) at 1000 nM relative to control
# Sequence of Casein kinase I isoform alpha-like (Homo sapiens) (Q8N752 whole entry, canonical isoform): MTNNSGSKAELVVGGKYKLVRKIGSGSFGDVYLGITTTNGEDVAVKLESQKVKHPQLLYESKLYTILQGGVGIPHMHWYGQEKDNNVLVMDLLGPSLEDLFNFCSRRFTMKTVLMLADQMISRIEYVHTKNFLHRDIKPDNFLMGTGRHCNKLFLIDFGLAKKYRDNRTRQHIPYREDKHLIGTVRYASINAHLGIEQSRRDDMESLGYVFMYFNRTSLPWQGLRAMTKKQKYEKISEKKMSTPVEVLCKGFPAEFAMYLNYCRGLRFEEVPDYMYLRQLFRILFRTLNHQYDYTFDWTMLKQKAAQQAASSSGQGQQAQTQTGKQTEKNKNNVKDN
# MOLM-13 [22] = experiment: Antiproliferative activity against human MOLM-13 cells incubated for 48 hrs by CCK-8 assay; format: functional, cell-based; conditions: MOLM-13, 48 h
# [23] = molecular target: Mitogen-activated protein kinase 1 (Homo sapiens) (UniProt P28482); experiment: Inhibition of ERK2 (unknown origin) at 1000 nM relative to control
# MOLM-13 [24] = experiment: Induction of apoptosis in human MOLM-13 cells at 10 nM after 48 hrs by Annexin-V/PI staining based flow cytometry; format: functional, cell-based
# [25] = molecular target: Serine/threonine-protein kinase TBK1 (Homo sapiens) (UniProt Q9UHD2); experiment: Inhibition of TBK1 (unknown origin) at 1000 nM relative to control
# Sequence of Serine/threonine-protein kinase TBK1 (Homo sapiens) (Q9UHD2 whole entry): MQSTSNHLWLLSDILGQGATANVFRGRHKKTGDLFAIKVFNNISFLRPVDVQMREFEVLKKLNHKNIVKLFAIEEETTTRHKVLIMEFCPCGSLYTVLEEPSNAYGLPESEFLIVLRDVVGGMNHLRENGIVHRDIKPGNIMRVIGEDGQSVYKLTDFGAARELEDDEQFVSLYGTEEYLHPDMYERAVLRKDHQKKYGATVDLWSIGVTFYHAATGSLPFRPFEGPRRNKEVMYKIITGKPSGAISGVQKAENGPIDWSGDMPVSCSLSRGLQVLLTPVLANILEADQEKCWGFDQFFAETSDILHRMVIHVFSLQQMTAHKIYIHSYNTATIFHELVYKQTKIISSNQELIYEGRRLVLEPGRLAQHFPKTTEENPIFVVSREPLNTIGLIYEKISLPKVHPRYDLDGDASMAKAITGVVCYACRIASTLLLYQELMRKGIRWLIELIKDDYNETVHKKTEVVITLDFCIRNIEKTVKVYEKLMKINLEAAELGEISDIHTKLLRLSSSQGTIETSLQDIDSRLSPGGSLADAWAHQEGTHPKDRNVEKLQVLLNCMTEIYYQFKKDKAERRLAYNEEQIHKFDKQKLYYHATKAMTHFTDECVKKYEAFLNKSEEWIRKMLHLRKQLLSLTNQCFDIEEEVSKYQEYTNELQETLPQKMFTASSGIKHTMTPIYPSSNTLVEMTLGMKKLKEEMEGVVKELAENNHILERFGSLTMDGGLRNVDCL
# MV4-11 [26] = experiment: Antiproliferative activity against human MV4-11 cells incubated for 48 hrs by CCK-8 assay; format: functional, cell-based; conditions: MV4-11, 48 h
# [27] = molecular target: Maternal embryonic leucine zipper kinase (Homo sapiens) (UniProt Q14680); experiment: Inhibition of MELK (unknown origin) at 1000 nM relative to control
# [28] = molecular target: Serine/threonine-protein kinase MARK1 (Homo sapiens) (UniProt Q9P0L2); experiment: Inhibition of MARK1 (unknown origin) at 1000 nM relative to control
# Sequence of Serine/threonine-protein kinase MARK1 (Homo sapiens) (Q9P0L2 whole entry, looked up): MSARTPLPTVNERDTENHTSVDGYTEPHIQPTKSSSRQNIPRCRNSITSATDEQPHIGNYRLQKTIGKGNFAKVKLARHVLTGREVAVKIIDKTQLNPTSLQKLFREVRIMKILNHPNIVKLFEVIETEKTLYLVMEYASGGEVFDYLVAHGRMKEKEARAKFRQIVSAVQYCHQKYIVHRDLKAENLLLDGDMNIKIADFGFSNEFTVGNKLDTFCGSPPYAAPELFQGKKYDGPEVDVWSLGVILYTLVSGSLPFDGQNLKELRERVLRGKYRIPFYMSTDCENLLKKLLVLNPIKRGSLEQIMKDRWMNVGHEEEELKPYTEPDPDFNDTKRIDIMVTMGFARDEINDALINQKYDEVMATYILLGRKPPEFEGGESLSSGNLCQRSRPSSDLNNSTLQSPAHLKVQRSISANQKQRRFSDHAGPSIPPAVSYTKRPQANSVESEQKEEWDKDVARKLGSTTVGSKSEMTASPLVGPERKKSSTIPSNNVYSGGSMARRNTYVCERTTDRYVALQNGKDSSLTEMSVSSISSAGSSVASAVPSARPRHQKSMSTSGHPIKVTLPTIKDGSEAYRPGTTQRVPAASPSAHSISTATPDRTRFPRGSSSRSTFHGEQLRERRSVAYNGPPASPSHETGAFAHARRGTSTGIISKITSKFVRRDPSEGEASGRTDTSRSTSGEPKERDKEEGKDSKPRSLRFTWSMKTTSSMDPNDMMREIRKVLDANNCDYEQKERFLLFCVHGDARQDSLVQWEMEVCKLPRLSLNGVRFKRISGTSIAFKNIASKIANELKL
compound,measurement,setting,value
C[C@@H]1C[C@@H]([C@H](O)CC2CC(=O)NC(=O)C2)C(=O)[C@@H](C)C1,Activity,[1],inactive
CN1CCN(c2ccc3nc(-c4c(N)c5c(F)cccc5[nH]c4=O)[nH]c3c2)CC1 [DOVITINIB],inhibition,[2],82%
same,inhibition,[3],23%
same,inhibition,[4],94%
same,inhibition,[5],55%
same,inhibition,[6],2%
same,Activity,MV4-11 [7],inactive
same,inhibition,[8],38%
same,inhibition,[9],4%
same,inhibition,[10],37%
same,inhibition,[11],98%
same,inhibition,[12],20%
same,inhibition,[13],33%
same,inhibition,[14],25%
same,inhibition,[15],14%
same,inhibition,[16],54%
same,inhibition,[17],54%
same,inhibition,[18],85%
same,inhibition,[19],38%
same,inhibition,[20],79%
same,inhibition,[21],10%
same,IC50,MOLM-13 [22],795 nM
same,inhibition,[23],31%
same,Activity,MOLM-13 [24],inactive
same,inhibition,[25],64%
same,IC50,MV4-11 [26],184 nM
same,inhibition,[27],70%
same,inhibition,[28],57%
